# Measurements as given in patent US7183061B2, “Method of expressing Heliothis ecdysone receptor fusion protein” (Syngenta Limited, priority 1996, dated 2007).
# Experiments:
# [1] = system: glucocorticoid receptor transactivating and DNA binding domains fused to the ecdysone receptor hinge and ligand binding domains; details: mammalian cells; cited from earlier work
# [2] = molecular target: T1, chimeric ecdysone receptor and reporter gene cassette (pES1) (UniProt O18473+P04150); assay: GUS activity in stably transformed tobacco plants (pES1); format: in vivo, Heliothis virescens
# T1 construct: expressed in transfected cells; host or cells: stably transformed tobacco plants (A9)
# T1 sequence (P04150+O18473 with tags, fused parts or gaps): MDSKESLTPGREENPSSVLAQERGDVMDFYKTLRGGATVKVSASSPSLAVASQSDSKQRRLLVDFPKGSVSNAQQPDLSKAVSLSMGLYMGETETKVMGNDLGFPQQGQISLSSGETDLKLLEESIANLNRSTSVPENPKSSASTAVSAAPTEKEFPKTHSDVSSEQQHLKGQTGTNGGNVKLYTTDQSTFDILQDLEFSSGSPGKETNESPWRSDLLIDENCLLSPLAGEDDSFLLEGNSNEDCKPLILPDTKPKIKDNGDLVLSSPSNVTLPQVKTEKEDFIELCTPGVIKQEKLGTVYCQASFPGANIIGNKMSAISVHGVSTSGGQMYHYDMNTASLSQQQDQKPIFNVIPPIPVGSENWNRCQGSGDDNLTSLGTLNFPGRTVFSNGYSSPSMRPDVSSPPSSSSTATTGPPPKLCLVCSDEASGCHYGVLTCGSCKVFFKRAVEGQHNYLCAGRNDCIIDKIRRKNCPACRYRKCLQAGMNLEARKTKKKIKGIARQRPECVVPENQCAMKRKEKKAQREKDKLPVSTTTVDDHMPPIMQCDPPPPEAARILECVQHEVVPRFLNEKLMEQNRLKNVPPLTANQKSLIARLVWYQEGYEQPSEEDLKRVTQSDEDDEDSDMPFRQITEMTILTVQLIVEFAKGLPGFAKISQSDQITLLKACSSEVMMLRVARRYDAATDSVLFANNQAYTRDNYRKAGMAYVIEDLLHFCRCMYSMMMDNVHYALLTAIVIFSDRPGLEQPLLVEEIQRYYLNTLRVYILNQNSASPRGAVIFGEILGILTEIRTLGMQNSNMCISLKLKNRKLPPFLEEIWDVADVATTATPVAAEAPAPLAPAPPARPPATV
# From the text: The methodology described below was used to produce four different stable Tobacco vectors. The method involves three steps: • 1. pbluescript SK HindIII/EcoRI vector was ligated to either GRE6-4635SCaMVGUSNOS HindIII/EcoRI (from p221.10GRE6) or GRE6-6035SCaMVGUSNOS HindIII/EcoRI (from p221.9GRE6) resulting in plasmid pSK-46 and pSK-60. • 2. This step involves the addition of the chimeric receptor (35SGRHEcRNOS or 35SGRVP16HEcRNOS) to pSK-60 or pSK-46. Thus a pSK-60 (or pSK-46) XbaI vector was ligated with either the 3.4 kb 35SGRHEcRNOS XbaI or the 3.0 kb 35SGRVP16HEcRNOS XbaI DNA fragment to produce pSKES1 (pSKGRE6-6035SCaMVGUSNOS-35SGRHEcRNOS), pSKES2 (pSKGRE6-4635 SCaMVGUSNOS-35 SGRHEcRNOS), pSKES3 (pSKGRE6-6035SCaMVGUSNOS-35SGRVP16HEcRNOS) and pSKES4 (pSKGRE6-4635SCaMVGUSNOS-35SGRVP16HEcRNOS). • 3. Transfer from pBluescript based vectors to binary vectors. The transfer of the ES1 (FIG. 29) ES2 (FIG. 30), ES3 (FIG. 31) or ES4 (FIG. 32) DNA fragments into the binary vector JR1 involves five steps: • (i) Restriction enzyme digestion of pSKES1 (ES2, ES3, and ES4) with ApaI and NotI to liberate the insert from the vector pBluescript. • (ii) The two DNA fragments were BamHI methylated for 2 hours at 37° C. in TRIS-HCl, MgCl, 80 μM SAM (S-adenosylmethionine) and 20 U of BamHI methylase. • (iii) Ligate an ApaI/NotI linker onto the fragment. The linker was designed to have an internal BamHI site: • ApaBNot1 5′ cattggatccttagc 3′ (SEQ ID NO: 46) and • ApaBNot2 5′ […] 3′ (SEQ ID NO: 47). • (iv) Restriction enzyme digest the protected and linkered fragment with BamHI and fractionate the products on a 1% (w/v) agarose gel. The protected DNA fragment (5.5 kb) was cut out of the gel and purified. • (v) A ligation of JRI BamHI vector with the protected band was carried out to produce JRIESI (JRIES2, JRIES3 or JRIES4). The DNA of the recombinant was characterised by restriction mapping and the sequence of the junctions determined. […]
Structure (SMILES),activity of chimeric receptor as homodimer [1],"GUS activity ([2]; 5 mM foliar application, 8 week old glasshouse grown tobacco plants)",GUS activity ([2]; seedlings grown hydroponically in the presence of inducer),"GUS activity ([2]; transgenic tobacco treated in cell culture, 100 μM in MS media)"
CC(C)CC[C@@H](O)[C@](C)(O)[C@H]1CC[C@@]2(O)C3=CC(=O)[C@]4(O)C[C@@H](O)[C@@H](O)C[C@]4(C)[C@H]3[C@H](O)C[C@]12C [Muristerone A],active,,,
"CCc1ccc(C(=O)NN(C(=O)c2cc(C)cc(C)c2)C(C)(C)C)cc1 [RH5992, 3,5-dimethylbenzoic acid 1-1(1,1-dimethylethyl)-2(4-ethylbenzoyl)hydrazide]",,significantly elevated,significantly elevated,significantly elevated
